The record followed here is US8802597B2, “Herbicidal pyrimidines” (E I du Pont de Nemours and Company, priority 2003, dated 2014).

Where two headings read alike, the source gives them in different places.

Holding throughout (experiment): Test A pre/postemergence
Holding throughout (format): in vivo

The test system of assay [1] is velvetleaf (Abutilon theophrasti). As to conditions: Abutilon theophrasti, 240 h, read-out: Plant response rating, Velvetleaf; for pest or weed control at 125 g/ha: 125 g ai/ha; for pest or weed control at 500 g/ha: 500 g ai/ha. The method in brief: (§1)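 Seeds in loam–sand blend received preemergence directed soil spray and, concurrently, postemergence application (plants 2–10 cm, 1–2-leaf stage) of compound in non-phytotoxic solvent with surfactant. After about ten days in greenhouse, injury rated visually versus untreated controls, 0 (no effect) to 100 (complete control).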

Assay [2] has as its system redroot pigweed (Amaranthus retroflexus). As to conditions: Amaranthus retroflexus, 240 h, read-out: Plant response rating, Pigweed; for pest or weed control at 125 g/ha: 125 g ai/ha; for pest or weed control at 500 g/ha: 500 g ai/ha. In short, it runs like this:
as §1

Assay [3] relates to barnyardgrass (Echinochloa crus-galli). As to conditions: Echinochloa crus-galli, 240 h, read-out: Plant response rating, Barnyardgrass; for pest or weed control at 125 g/ha: 125 g ai/ha; for pest or weed control at 500 g/ha: 500 g ai/ha. The method in brief: as §1
Assay [4] concerns crabgrass (Digitaria sanguinalis). As to conditions: Digitaria sanguinalis, 240 h, read-out: Plant response rating, Crabgrass; for pest or weed control at 125 g/ha: 125 g ai/ha; for pest or weed control at 500 g/ha: 500 g ai/ha. The method in brief:
as §1

The test system of assay [5] is giant foxtail (Setaria faberi). As to conditions: Setaria faberi, 240 h, read-out: Plant response rating, Foxtail, Giant; for pest or weed control at 125 g/ha: 125 g ai/ha; for pest or weed control at 500 g/ha: 500 g ai/ha. The method in brief: as §1
Assay [6] relates to morningglory (Ipomoea spp.). As to conditions: Ipomoea, 240 h, read-out: Plant response rating, Morningglory; for pest or weed control at 125 g/ha: 125 g ai/ha; for pest or weed control at 500 g/ha: 500 g ai/ha. In short, it runs like this:
as §1

[7] abbreviates: post-emergence, Postemergence, 0 to 100 scale (0 no effect, 100 complete control).
Where [8] appears, read: pre-emergence, Preemergence, 0 to 100 scale where 0 is no effect and 100 is complete control, approximately ten days.

`CCOC(=O)c1nc(-c2ccc3c(c2)OCO3)nc(N)c1Cl` [Compound 74]: the pest or weed control at 125 g/ha in assay [1] (setting [7]) was 70%; in assay [1] (setting [8]) it was 30%; in assay [2] (setting [7]) it was 60%; in assay [2] (setting [8]), 0%; in assay [3] (setting [7]), 30%; in assay [3] (setting [8]) it was 0%. Further, the pest or weed control at 125 g/ha in assay [4] (setting [7]) was 30%; in assay [4] (setting [8]) it was 20%; in assay [5] (setting [7]), 60%; in assay [5] (setting [8]), 0%; in assay [6] (setting [7]), 40%; in assay [6] (setting [8]) it was 0%. For the same compound, the pest or weed control at 500 g/ha in assay [1] (setting [7]) was 80%; in assay [1] (setting [8]), 50%; in assay [2] (setting [7]), 70%; in assay [2] (setting [8]), 40%; in assay [3] (setting [7]), 70%; in assay [3] (setting [8]), 50%. In addition, the pest or weed control at 500 g/ha came to 60% in assay [4] (setting [7]); 50% in assay [4] (setting [8]); 70% in assay [5] (setting [7]); 40% in assay [5] (setting [8]); 30% in assay [6] (setting [7]); 30% in assay [6] (setting [8]).
Regarding `CNc1nc(C2CC2)nc(C(=O)OC)c1Cl` [Compound 79], the pest or weed control at 125 g/ha stood at 90% in assay [1] (setting [7]); 60% in assay [1] (setting [8]); 90% in assay [2] (setting [7]); 90% in assay [2] (setting [8]); 85% in assay [3] (setting [7]); 30% in assay [3] (setting [8]). Besides, the pest or weed control at 125 g/ha in assay [4] (setting [7]) was 40%; in assay [4] (setting [8]), 30%; in assay [5] (setting [7]) it was 80%; in assay [5] (setting [8]), 40%; in assay [6] (setting [7]), 90%; in assay [6] (setting [8]) it was 55%. Also, the pest or weed control at 500 g/ha in assay [1] (setting [7]) is 95%; in assay [1] (setting [8]) it was 90%; in assay [2] (setting [7]), 100%; in assay [2] (setting [8]), 100%; in assay [3] (setting [7]), 90%; in assay [3] (setting [8]), 80%. Further, the pest or weed control at 500 g/ha turned out to be 75% in assay [4] (setting [7]); 80% in assay [4] (setting [8]); 90% in assay [5] (setting [7]); 95% in assay [5] (setting [8]); 95% in assay [6] (setting [7]); 100% in assay [6] (setting [8]).
As to `COC(=O)c1nc(-c2ccc(Cl)cc2)nc(N)c1Cl` [Compound 58, methyl 6-amino-5-chloro-2-(4-chlorophenyl)-4-pyrimidinecarboxylate], the pest or weed control at 125 g/ha is 70% in assay [1] (setting [7]); 0% in assay [1] (setting [8]); 70% in assay [2] (setting [7]); 0% in assay [2] (setting [8]); 5% in assay [3] (setting [7]); 0% in assay [3] (setting [8]). Moreover, the pest or weed control at 125 g/ha in assay [4] (setting [7]) is 5%; in assay [4] (setting [8]) it was 0%; in assay [5] (setting [7]), 0%; in assay [5] (setting [8]) it was 0%; in assay [6] (setting [7]), 55%; in assay [6] (setting [8]), 10%. Also, the pest or weed control at 500 g/ha was 85% in assay [1] (setting [7]); 40% in assay [1] (setting [8]); 80% in assay [2] (setting [7]); 60% in assay [2] (setting [8]); 10% in assay [3] (setting [7]); 0% in assay [3] (setting [8]). Besides, the pest or weed control at 500 g/ha in assay [4] (setting [7]) was determined as 10%; in assay [4] (setting [8]), 0%; in assay [5] (setting [7]) it was 50%; in assay [5] (setting [8]) it was 10%; in assay [6] (setting [7]), 80%; in assay [6] (setting [8]), 25%.
As to `COC(=O)c1nc(C2CC2)nc(N)c1OC` [Compound 59], the pest or weed control at 125 g/ha in assay [1] (setting [7]) worked out at 60%; in assay [1] (setting [8]), 10%; in assay [2] (setting [7]), 60%; in assay [2] (setting [8]), 20%; in assay [3] (setting [7]), 0%; in assay [3] (setting [8]), 0%. In addition, the pest or weed control at 125 g/ha worked out at 0% in assay [4] (setting [7]); 0% in assay [4] (setting [8]); 0% in assay [5] (setting [7]); 0% in assay [5] (setting [8]); 90% in assay [6] (setting [7]); 80% in assay [6] (setting [8]). The pest or weed control at 500 g/ha in assay [1] (setting [7]) is 85%; in assay [1] (setting [8]) it was 45%; in assay [2] (setting [7]) it was 80%; in assay [2] (setting [8]), 70%; in assay [3] (setting [7]), 30%; in assay [3] (setting [8]), 15%. Besides, the pest or weed control at 500 g/ha turned out to be 10% in assay [4] (setting [7]); 0% in assay [4] (setting [8]); 35% in assay [5] (setting [7]); 0% in assay [5] (setting [8]); 100% in assay [6] (setting [7]); 100% in assay [6] (setting [8]).
Take `COC(=O)c1nc(-c2ccc(Br)cc2)nc(N)c1Cl` [Compound 96, methyl 6-amino-2-(4-bromophenyl)-5-chloro-4-pyrimidinecarboxylate]: the pest or weed control at 125 g/ha in assay [1] (setting [7]) came to 80%; in assay [1] (setting [8]), 65%; in assay [2] (setting [7]), 70%; in assay [2] (setting [8]) it was 80%; in assay [3] (setting [7]), 20%; in assay [3] (setting [8]), 5%. The pest or weed control at 125 g/ha in assay [4] (setting [7]) turned out to be 5%; in assay [4] (setting [8]), 50%; in assay [5] (setting [7]) it was 25%; in assay [5] (setting [8]), 5%; in assay [6] (setting [7]), 60%; in assay [6] (setting [8]) it was 15%. The pest or weed control at 500 g/ha in assay [1] (setting [7]) is 85%; in assay [1] (setting [8]), 80%; in assay [2] (setting [7]), 85%; in assay [2] (setting [8]), 80%; in assay [3] (setting [7]), 25%; in assay [3] (setting [8]), 10%. Moreover, the pest or weed control at 500 g/ha in assay [4] (setting [7]) came to 20%; in assay [4] (setting [8]) it was 65%; in assay [5] (setting [7]), 35%; in assay [5] (setting [8]) it was 10%; in assay [6] (setting [7]), 65%; in assay [6] (setting [8]), 80%.
